Where a SMILES comes first, the peptide text is derived from it. [ ]: non-standard residue; d: D form. Bpa = N[C@@H](Cc1ccc(C(=O)c2ccccc2)cc1)C(=O)O; 1Nal = N[C@@H](Cc1cccc2ccccc12)C(=O)O; Aze = O=C(O)[C@@H]1CCN1
target: T1, IL-1RtI (Homo sapiens, UniProt P14778); assay: Inhibition of 125I-IL-1α binding to IL-1RtI (Example 3); conditions: inhibition of 125I-IL-1α binding to IL-1RtI; soluble peptide unless marked *
T1 construct: made in house; host or cells: recombinant host cells (one form soluble from baculovirus transformed host cells; another PIG-tailed and cleaved from the cell surface)
T1 sequence (P14778 18-336): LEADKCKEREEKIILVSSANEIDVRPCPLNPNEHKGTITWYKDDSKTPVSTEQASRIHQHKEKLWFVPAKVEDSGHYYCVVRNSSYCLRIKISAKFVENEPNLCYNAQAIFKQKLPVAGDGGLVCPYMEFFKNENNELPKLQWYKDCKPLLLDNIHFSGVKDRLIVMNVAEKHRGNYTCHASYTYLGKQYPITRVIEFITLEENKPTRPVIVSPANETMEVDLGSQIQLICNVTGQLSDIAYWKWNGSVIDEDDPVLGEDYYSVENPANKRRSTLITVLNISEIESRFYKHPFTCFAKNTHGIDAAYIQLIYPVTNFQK
Experimental: This example provides the results of experiments conducted to determine an approximate IC50 for certain peptides of the invention. IC50 as used herein refers to the concentration of a compound which will inhibit 50% of the binding between a receptor and its ligand, e.g. IL-1RtI and IL-1. Stock solutions of each peptide were prepared. The appropriate amount of the peptide was dissolved in DMSO, and then nineteen volumes of binding buffer (RPMI 1640, 1% BSA, 20 mM HEPES, pH 7.2-7.3, and 0.1% sodium azide) were added to yield a 1 mM peptide, 5% DMSO stock solution.
One assay utilized a truncated IL-1RtI which had been immobilized on 96-well plates with an appropriate antibody, typically a non-blocking high affinity antibody. In other assays, cells expressing "full-length" IL-1RtI were used with results that yielded IC50 values about 5 to 10 fold lower than those determined using the truncated receptor. The cells were seeded onto Falcon 3072 96-well plates at about 10^5 cells per well, and the plates were incubated overnight at 37° C. in media containing serum. The following morning, the cells were checked to ensure that the cells were confluent and adhered to the bottom of the wells.
According to either assay protocol, the plates were then washed three times with binding buffer, and then 50 μl of binding buffer and 25 μl of a peptide solution (either the stock solution or a dilution thereof; each stock was subjected to five three fold dilutions) were added to each well. Then 25 μl of binding buffer containing ^125 I-IL-1α (final concentration of 90 pM) were added to each well to begin the assay. Each assay was carried out in duplicate. The plates were then incubated for two hours at 4° C. For peptides having particularly high affinities, the assay was run in 24 well plates allowing for higher levels of ligand (possible total volume of 2.5 ml instead of 100 μl in the 96 well plate), thereby minimizing the potential for ligand depletion.
After the two hour incubation, the wells were rinsed three times with ice cold PBS (a semi-automated cell harvesting device was used to conduct the rinse). The receptors or cells were then detached from the plates by adding 100 μl of 0.1N NaOH to each well and incubating the plates at room temperature for 20 minutes. After the 20 minute incubation, about 75 μl of the suspension was counted on a gamma counter, and the IC50 for each peptide was determined using computer assistance and the results of the gamma counting.

`C[C@@H](O)[C@H](NC(=O)[C@H](Cc1c[nH]c2ccccc12)NC(=O)[C@H](CCC(=O)O)NC(=O)[C@@H](N)Cc1cccc2ccccc12)C(=O)N1CCC[C@H]1C(=O)NCC(=O)N[C@@H](Cc1ccc(O)cc1)C(=O)N[C@@H](Cc1ccc(O)cc1)C(=O)N[C@@H](CCC(N)=O)C(=O)N1CC[C@H]1C(=O)N[C@@H](Cc1ccc(O)cc1)C(N)=O` [1Nap--EWTPGYYQJY--NH2] (H-[1Nal]EWTPGYYQ[Aze]Y-NH2) and `C[C@@H](O)[C@H](NC(=O)[C@H](Cc1c[nH]c2ccccc12)NC(=O)[C@H](CCC(=O)O)NC(=O)[C@@H](N)Cc1ccc(C(=O)c2ccccc2)cc1)C(=O)N1CCC[C@H]1C(=O)NCC(=O)N[C@@H](Cc1ccc(O)cc1)C(=O)N[C@@H](Cc1ccc(O)cc1)C(=O)N[C@@H](CCC(N)=O)C(=O)N1CC[C@H]1C(=O)N[C@@H](Cc1ccc(O)cc1)C(N)=O` [Bpa--EWTPGYYQJY--NH2] (H-[Bpa]EWTPGYYQ[Aze]Y-NH2) cannot be ordered by IC50: no more than 500 nM for the first, no more than 500 nM for the second.

`C[C@H](N)C(=O)N[C@@H](CCC(=O)O)C(=O)N[C@@H](Cc1c[nH]c2ccccc12)C(=O)N[C@H](C(=O)N1CCC[C@H]1C(=O)NCC(=O)N[C@@H](Cc1ccc(O)cc1)C(=O)N[C@@H](Cc1c[nH]c2ccccc12)C(=O)N[C@@H](CCC(N)=O)C(=O)N1CC[C@H]1C(=O)N[C@@H](Cc1ccc(O)cc1)C(N)=O)[C@@H](C)O` [AEWTPGYWQJY--NH2] (H-AEWTPGYWQ[Aze]Y-NH2) and `CC(=O)N[C@@H](Cc1ccccc1)C(=O)N[C@@H](CCC(=O)O)C(=O)N[C@@H](Cc1c[nH]c2ccccc12)C(=O)N[C@H](C(=O)N1CCC[C@H]1C(=O)NCC(=O)N[C@@H](Cc1ccc(C(=O)c2ccccc2)cc1)C(=O)N[C@@H](Cc1ccc(O)cc1)C(=O)N[C@@H](CCC(N)=O)C(=O)N1CC[C@H]1C(=O)N[C@@H](Cc1ccc(O)cc1)C(N)=O)[C@@H](C)O` [AcFEWTPG--Bpa--YQJY--NH2] (Ac-FEWTPG[Bpa]YQ[Aze]Y-NH2) cannot be ordered by IC50: no more than 100000 nM for the first, no more than 500 nM for the second.

`CC(=O)N[C@@H](Cc1ccc(C(=O)c2ccccc2)cc1)C(=O)N[C@@H](CCC(=O)O)C(=O)N[C@@H](Cc1c[nH]c2ccccc12)C(=O)N[C@H](C(=O)N1CCC[C@H]1C(=O)NCC(=O)N[C@@H](Cc1ccc(O)cc1)C(=O)N[C@@H](Cc1ccc(O)cc1)C(=O)N[C@@H](CCC(N)=O)C(=O)N1CC[C@H]1C(=O)N[C@@H](Cc1ccc(O)cc1)C(N)=O)[C@@H](C)O` [AcBpa--EWTPGYYQJY--NH2] (Ac-[Bpa]EWTPGYYQ[Aze]Y-NH2) and `CC(=O)N[C@@H](Cc1ccccc1)C(=O)N[C@@H](CCC(=O)O)C(=O)N[C@@H](Cc1c[nH]c2ccccc12)C(=O)N[C@H](C(=O)N1CCC[C@H]1C(=O)NCC(=O)N[C@@H](Cc1ccc(O)cc1)C(=O)N[C@@H](Cc1ccc(C(=O)c2ccccc2)cc1)C(=O)N[C@@H](CCC(N)=O)C(=O)N1CC[C@H]1C(=O)N[C@@H](Cc1ccc(O)cc1)C(N)=O)[C@@H](C)O` [AcFEWTPGY--Bpa--QJY--NH2] (Ac-FEWTPGY[Bpa]Q[Aze]Y-NH2) cannot be ordered by IC50: no more than 500 nM for the first, no more than 500 nM for the second.

`CC(=O)N[C@@H](Cc1ccccc1)C(=O)N[C@@H](CCC(=O)O)C(=O)N[C@@H](Cc1ccc(C(=O)c2ccccc2)cc1)C(=O)N[C@H](C(=O)N1CCC[C@H]1C(=O)NCC(=O)N[C@@H](Cc1ccc(O)cc1)C(=O)N[C@@H](Cc1ccc(O)cc1)C(=O)N[C@@H](CCC(N)=O)C(=O)N1CC[C@H]1C(=O)N[C@@H](Cc1ccc(O)cc1)C(N)=O)[C@@H](C)O` [AcFE--Bpa--TPGYYQJY--NH2] (Ac-FE[Bpa]TPGYYQ[Aze]Y-NH2) and `CC(=O)N[C@@H](Cc1ccccc1)C(=O)N[C@@H](CCC(=O)O)C(=O)N[C@@H](Cc1c[nH]c2ccccc12)C(=O)N[C@H](C(=O)N1CCC[C@H]1C(=O)NCC(=O)N[C@@H](Cc1ccc(O)cc1)C(=O)N[C@@H](Cc1ccc(O)cc1)C(=O)N[C@@H](CCC(N)=O)C(=O)N1CC[C@H]1C(=O)N[C@@H](Cc1ccc(C(=O)c2ccccc2)cc1)C(N)=O)[C@@H](C)O` [AcFEWTPGYYQJ--Bpa--NH2] (Ac-FEWTPGYYQ[Aze][Bpa]-NH2) cannot be ordered by IC50: no more than 100000 nM for the first, no more than 100000 nM for the second.

Source: patent US5861476A, “Peptides and compounds that bind to the IL-1 receptor” (Affymax Technologies N.V., priority 1995, dated 1999)
